Measured values as given in patent US20240156773A1, “METHOD FOR INCREASING BLOOD DECANOIC ACID CONCENTRATION, BLOOD-DECANOIC-ACID-CONCENTRATION-INCREASING AGENT, PHARMACEUTICAL COMPOSITION, AND FOOD COMPOSITION” (The Nisshin OilliO Group, Ltd., priority 2021, published 2024).

Assay: Administration test of triglyceride to rat: blood decanoic acid concentration
Conditions: in vivo, po
Method: Male SD rats aged 7 weeks (Japan SLC, Inc.) were kept using a TPX cage (W21.8×D37.3×H18.1 cm) with three rats or less/cage. The rats were fed ad libitum with solid feed “Labo MR stock” (Nosan Corporation.) sterilized with radiation throughout the feeding period, and fasted about 16 hours before the administration of a test fat and oil sample. The rats were fed ad libitum with distilled water as drinking water using a water supply bottle. The acclimation period was a week, and it was confirmed that abnormalities of general conditions were not observed on the final day of the acclimation period, and body weight was measured using an electronic scale (GX-3000; A & D Company, Limited). The rats were divided into 6 groups for each test fat and oil sample using a grouping software (Statlight; Yukms Co., Ltd.) so that the body weight of the groups was almost equal (6 rats in each group).
Each TG was orally administered in a single dose at 1 mL/body using a 1 mL disposable syringe and a disposable gastric tube for rats. […]
To the extracted lipid fraction, 2 ml of a 0.5 mol/L NaOH-methanol solution was added. […] The hexane layer was transferred to a vial, and used for GC (Agilent Technologies) in the conditions shown in Table 3, and the blood decanoic acid concentration was determined by the internal standard method. […]

## CCCCCCCCCC(=O)OCC(COC(=O)CCCCCCCCC)OC(=O)CCCCCCCCC [TG1, tridecanoin]
  Blood decanoic acid concentration, average value: 124.4 µM
